Source: patent publication US8440637B2, “Combination treatment for the treatment of hepatitis C virus infection” (priority 2007, dated 2013)
Strand notation (5' to 3'): a small letter for the sugar, then the base; units joined by * are phosphorothioate-linked, units joined directly phosphodiester-linked; [ ] holds rarer units or linkages, { } end groups; capitals alone tell only the bases. l = locked nucleic acid (LNA); [5mC] = 5-methylcytosine; d = 2'-deoxy (DNA)

What was measured:
miR-122a = miR-122a levels in mouse liver by microRNA specific qPCR; type: in vivo
Experimental: Total RNA was extracted from liver samples as described above and analysed for miR-122a levels by microRNA specific QPCR.
In vivo study: Ten groups of animals (female C57/BL6; 3 mice per group) were treated in the following manner. Group 1 animals were injected with 0.2 ml saline by i.p. on day 0, day 2 and day 4. Groups 2-10 were dosed by i.p. with three different conc. (25 mg/kg, 5 mg/kg and 1 mg/kg) of either LNA antimiR-122a/SEQ ID NO: 61 (group 2-4), LNA antimir-122a/SEQ ID NO: 66 (group 5-7) or LNA antimir-122a/SEQ ID NO: 63 (group 8-10); the LNA antimir-122a sequences are given in the Table 1. All three LNA antimiR-122a oligonucleotides target the liver-specific miR-122a. The doses were calculated from the Day 0 body weights of each animal.
The animals were sacrificed 48 hours after last dose (Day 6), retro-orbital blood was collected in tubes containing EDTA and the plasma fraction harvested and stored frozen −80° C. for cholesterol analysis. At sacrifice livers were dissected and one portion was cut into 5 mm cubes and immersed in 5 volumes of ice-cold RNAlater. A second portion was snap frozen in liquid nitrogen and stored for cryo-sectioning.
Total RNA was extracted from liver samples using Trizol reagent according to the manufacturer's recommendations (Invitrogen, USA) and analysed for miR-122a levels by microRNA-specific QPCR according to the manufacturer's recommendations (Ambion, USA). […]
NMRI female mice were treated with indicated doses of LNA-antimiR (SEQ ID NO: 61) along with a mismatch control (m, SEQ ID NO: 65), saline and antagomir (SPC3595) for three consecutive days and sacrificed 24 hours after last dose (as in example 11 “old design”, n=5). miR-122 levels were analyzed by qPCR and normalized to the saline treated group.
C57BL/6J female mice were fed on high fat diet for 13 weeks before the initiation of the SEQ ID NO: 63 treatment. […] Both hypercholesterolemic and normal mice were treated i.p. twice weekly with 5 mg/kg SEQ ID NO: 63 and the corresponding mismatch control for a study period of 5½ weeks. Blood samples were collected weekly and total plasma cholesterol was measured during the entire course of the study. Upon sacrificing the mice, liver and blood samples were prepared for total RNA extraction, miRNA and mRNA quantification, assessment of the serum transaminase levels, and liver histology.
The miR-122 and let-7a microRNA levels were quantified with TaqMan microRNA Assay (Applied Biosystems) following the manufacturer's instructions. The RT reaction was diluted ten times in water and subsequently used for real time PCR amplification according to the manufacturer's instructions. A two-fold cDNA dilution series from liver total RNA of a saline-treated animal or mock transfected cells cDNA reaction (using 2.5 times more total RNA than in samples) served as standard to ensure a linear range (Ct versus relative copy number) of the amplification. Applied Biosystems 7500 or 7900 real-time PCR instrument was used for amplification.

miR-122 = test: microRNA specific northern blot of mouse liver RNA; type: in vivo
Experimental: We decided to assess the effect of SEQ ID NO:63 on miR-122 miRNA levels in the livers of SEQ ID NO: 63-treated mice. The LNA-antimiRs SEQ ID NO:63 and SEQ ID NO: 61 were administered into mice by three i.p. injections on every second day over a six-day-period at indicated doses followed by sacrificing the animals 48 hours after the last dose. Total RNA was extracted from the livers. miR-122 levels were assessed by microRNA specific northern blot (FIG. 6)
The liver RNA was also subjected to microRNA Northern blot. Shown in FIG. 13 is a membrane probed with a miR-122a specific probe (upper panel) and re-probed with a Let-7 specific probe (lower panel). With the miR-122 probe, two bands could be detected, one corresponding to mature miR-122 and one corresponding to a duplex between SEQ ID NO: 61 and miR-122.
Preparation of northern membranes was done as described in Sempere et al. 2002, except for the following changes: Total RNA, 10 μg per lane, in formamide loading buffer (47.5% formamide, 9 mM EDTA, 0.0125% Bromophenol Blue, 0.0125% Xylene Cyanol, 0.0125% SDS) was loaded onto a 15% denaturing Novex TBE-Urea polyacrylamide gel (Invitrogen) without preheating the RNA. The RNA was electrophoretically transferred to a GeneScreen plus Hybridization Transfer Membrane (PerkinElmer) at 200 mA for 35 min. Membranes were probed with 32P-labelled LNA-modified oligonucleotides complimentary to the mature microRNAs*. The LNA oligonucleotides were labelled and hybridized to the membrane as described in (Válóczi et al. 2004) except for the following changes: The prehybridization and hybridization solutions contained 50% formamide, 0.5% SDS, 5×SSC, 5×Denhardt's solution and 20 μg/ml sheared denatured herring sperm DNA. Hybridizations were performed at 45° C. The blots were visualized by scanning in a Storm 860 scanner. The signal of the background membrane was subtracted from the radioactive signals originating from the miRNA bands. The values of the miR-122 signals were corrected for loading differences based on the let-7a signal. […]

122R, DNA = test: Melting temperature (Tm) of oligo against DNA complement; type: physicochemical
Experimental: The LNA anti-miR/miR-122a oligo duplex was diluted to 3 μM in 500 μl RNase free H2O, which was then mixed with 500 μl 2× dimerization buffer (final oligo/duplex conc. 1.5 μM, 2× Tm buffer: 200 mM NaCl, 0.2 mM EDTA, 20 mM NaP, pH 7.0, DEPC treated to remove RNases). The mix was first heated to 95 degrees for 3 minutes, then allowed to cool at room temperature (RT) for 30 minutes.
Following RT incubation Tm was measured on Lambda 40 UV/VIS Spectrophotometer with peltier temperature progammer PTP6 using PE Templab software (Perkin Elmer). The temperature was ramped up from 20° C. to 95° C. and then down again to 20° C., continuously recording absorption at 260 nm. First derivative and local maximums of both the melting and annealing was used to assess melting/annealing point (Tm), both should give similar/same Tm values. For the first derivative 91 points was used to calculate the slope.
However, in one embodiment the Tm may be made with a complementary DNA ([…]) molecule. Typically the Tm measured against a DNA complementary molecule is about 10° C. lower than the Tm with an equivalent RNA complement. The Tm measured using the DNA complement may therefore be used in cases where the duplex has a very high Tm.

[1] = i.p. on day 0, 2 and 4 at 25, 5 and 1 mg/kg, 48 hours after last dose

Substance | efficacy in vivo in miR-122a silencing compared to SEQ ID NO: 61 (in words) (miR-122a; [1]) | mature miR-122, small RNA northern blot (in words) (miR-122; liver RNA, let-7a control not altered) | miR-122a inhibition (in words) (miR-122a; 25 mg/kg i.v. on 3 successive days, Day 16) | miR-122a levels (in words) (miR-122a; 25 mg/kg i.v. on 3 successive days, Day 23) | miR-122a inhibition compared to saline control (in words) (miR-122a; 25 mg/kg i.v. on 3 successive days, sacrifice Day 9, 16 or 23) | IC50, miR-122a levels in liver (miR-122a; i.v. on 3 successive days, 2.5-25 mg/kg, 24 hour after last dose) [mg/kg] | reduction of miR-122 levels (miR-122a; one week after last LNA dose) [%] | Tm, oligo to DNA complement (122R, DNA) [°C] | blocking of miR-122, northern blot (in words) (miR-122; three i.p. injections every second day, 5 and 25 mg/kg, 48 hours after last dose) | duplex versus mature band on northern blot, comparison (in words) (miR-122; three i.p. injections every second day, 48 hours after last dose) | IC50, miR-122a silencing in liver (miR-122a; female C57/BL6, i.p. on day 0, 2 and 4 at 25, 5 and 1 mg/kg, 48 hours after last dose) [mg/kg] | miR-122 levels in liver after long-term treatment (in words) (miR-122a; hypercholesterolemic and normal mice, 5 mg/kg i.p. twice weekly for 5½ weeks)
5′-AttGTcaCaCtCC-3′ (antisense lA*dT*dT*lG*lT*dC*dA*l[5mC]*dA*l[5mC]*dT*l[5mC]*l[5mC]) [SEQ ID NO: 66] | significantly improved efficacy in vivo | – | – | – | – | – | – | – | – | – | – | –
5′-ccAttGtcAcaCtcCa-3′ (antisense CCATTGTCACACTCCA; sugars from the 5' end ddlddlddlddlddld, backbone and methylation of C not given here) [SEQ ID NO: 61] | – | significantly reduced levels of detectable mature miR-122 | inhibition could still be detected | approached those of the saline group | two-fold inhibition | 3 to 5 | 50 | 57 | – | – | – | –
5′-CcAttGTcaCaCtCC-3′ (antisense CCATTGTCACACTCC; sugars from the 5' end ldlddllddldldll, backbone and methylation of C not given here) [SEQ ID NO: 63] | most potent | – | – | – | – | – | – | 66 | completely blocked miR-122 | equally efficient at 1 mg/kg as SEQ ID NO: 61SEQ ID NO: 61 at 25 mg/kg | ~1 | comparable profile in both hypercholesterolemic and normal mice
